The text below walks through data of ChEMBL document CHEMBL4665812, “Targeting Her2-insYVMA with Covalent Inhibitors-A Focused Compound Screening and Structure-Based Design Approach” (J Med Chem, 2020).

One may read the efflux ratio as the permeability from basolateral to apical divided by that in the opposite direction, in the common usage. In general, IC50 refers to the concentration needed to halve the response being measured. Broadly, the Ki is the equilibrium dissociation constant of an inhibitor or competing ligand from its target. Read a high Ki as a looser hold on the target.

The nature of data set [1]: Ratio of apparent permeability across basolateral to apical over apical to basolateral side in human Caco2 cells at 5 uM after 2 hrs by transwell assay. Type of data set: ADME, cell-based. To be noted: Caco-2. On the technique in general: Passage across Caco-2 layers is used to estimate intestinal permeability.
The nature of data set [2]: Apparent permeability across apical side to basolateral side in human Caco-2 cells at 5 uM after 2 hrs by transwell assay. Type of data set: ADME, cell-based. To be noted: read-out: permeability.
Data set [3] can be described thus: Intrinsic clearance in mouse liver microsomes at 3 uM measured up to 60 mins by LC-MS analysis. Type of data set: ADME, Microsome. The conditions noted are these: read-out: CLH. In general terms: Microsomes from liver hold many membrane-bound enzymes, among them those of drug oxidation.
Data set [4] in a line: Intrinsic clearance in human liver microsomes at 3 uM measured up to 50 mins by LC-MS analysis. Type of data set: ADME, Microsome. The conditions noted are these: read-out: CLH.
Data set [5] is described as follows: Stability of compound in mouse plasma assessed as parent compound remaining at 5 uM measured for 1 hr by LC-MS analysis. Type of data set: ADME, cell-free. To be noted: read-out: Stabilty.
The nature of data set [6]: Stability of compound in human plasma assessed as parent compound remaining at 5 uM measured for 1 hr by LC-MS analysis. The conditions noted are these: read-out: Stabilty. Type of data set: ADME, cell-free.
Data set [7] is described as follows: Solubility of compound in aqueous buffer at pH 7.4 after 120 mins by turbidometric assay. Type of data set: physicochemical.
The target in data set [8] is Epidermal growth factor receptor (Homo sapiens, UniProt P00533, L858R/T790M). As to the kind of experiment: Inhibition of human N-terminal GST-tagged EGFR L858R/T790M mutant (669 to 1210 residues) expressed in baculovirus infected Sf9 insect cells using TK as substrate preincubated for 30 mins followed by substrate addition and measured after 20 mins by HTRF assay.
Data set [9] has as its target Epidermal growth factor receptor (Homo sapiens, UniProt P00533, L858R). Kind of data set: Inhibition of human N-terminal GST-tagged EGFR L858R mutant (669 to 1210 residues) expressed in baculovirus infected Sf9 insect cells using TK as substrate preincubated for 30 mins followed by substrate addition and measured after 15 mins by HTRF assay. (In TR-FRET formats the signal depends on donor and acceptor labels being close together.)

For data set [10], the target named is Epidermal growth factor receptor (Homo sapiens, UniProt P00533). Kind of data set: Inhibition of human N-terminal GST-tagged EGFR (669 to 1210 residues) expressed in baculovirus infected Sf9 insect cells using TK as substrate preincubated for 30 mins followed by substrate addition and measured after 25 mins by HTRF assay.
Sequence of Epidermal growth factor receptor (Homo sapiens, UniProt P00533) (P00533 whole entry, the tested form may be a part): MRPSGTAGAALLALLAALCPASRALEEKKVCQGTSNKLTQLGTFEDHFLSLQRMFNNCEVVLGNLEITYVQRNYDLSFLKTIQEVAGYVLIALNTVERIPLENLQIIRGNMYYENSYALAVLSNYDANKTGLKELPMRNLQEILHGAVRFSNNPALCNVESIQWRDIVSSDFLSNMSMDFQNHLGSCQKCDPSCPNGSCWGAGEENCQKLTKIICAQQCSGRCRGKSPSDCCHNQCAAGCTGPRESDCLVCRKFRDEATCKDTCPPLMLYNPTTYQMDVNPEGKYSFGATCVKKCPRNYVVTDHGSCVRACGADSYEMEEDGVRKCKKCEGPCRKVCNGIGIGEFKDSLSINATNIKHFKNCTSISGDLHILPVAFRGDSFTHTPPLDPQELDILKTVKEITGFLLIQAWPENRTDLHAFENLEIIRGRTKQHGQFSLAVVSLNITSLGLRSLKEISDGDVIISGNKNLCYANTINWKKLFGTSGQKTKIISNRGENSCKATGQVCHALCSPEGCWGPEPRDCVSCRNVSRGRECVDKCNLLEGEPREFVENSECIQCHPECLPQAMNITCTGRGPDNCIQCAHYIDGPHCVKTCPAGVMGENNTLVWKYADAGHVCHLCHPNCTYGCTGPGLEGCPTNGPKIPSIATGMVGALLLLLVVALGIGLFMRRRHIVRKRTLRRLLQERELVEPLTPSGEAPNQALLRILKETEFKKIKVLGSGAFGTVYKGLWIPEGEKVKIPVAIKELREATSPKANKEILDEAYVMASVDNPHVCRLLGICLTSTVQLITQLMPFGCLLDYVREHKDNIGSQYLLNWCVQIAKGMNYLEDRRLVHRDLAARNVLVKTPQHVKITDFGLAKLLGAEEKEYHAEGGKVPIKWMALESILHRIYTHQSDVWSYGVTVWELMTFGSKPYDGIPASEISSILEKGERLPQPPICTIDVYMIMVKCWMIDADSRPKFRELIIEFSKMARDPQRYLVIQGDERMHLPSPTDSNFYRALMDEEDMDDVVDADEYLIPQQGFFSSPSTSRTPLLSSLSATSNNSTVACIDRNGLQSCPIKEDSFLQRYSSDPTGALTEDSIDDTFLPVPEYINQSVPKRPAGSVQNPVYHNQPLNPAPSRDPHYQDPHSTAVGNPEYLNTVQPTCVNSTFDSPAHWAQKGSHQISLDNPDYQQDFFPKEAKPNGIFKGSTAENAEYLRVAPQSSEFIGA
A short description of data set [11]: Inhibition of C-terminal His6-tagged HER2-A775_G776insYVMA mutant (703 to 1029 residues) (unknown origin) expressed in Sf9 insect cells assessed as Kinact using TK as substrate measured up to 2 to 40 mins by fluorescence assay. The conditions noted are these: Homo sapiens, time min 2-40.
A short description of data set [12]: Inhibition of C-terminal His6-tagged HER2-A775_G776insYVMA mutant (703 to 1029 residues) (unknown origin) expressed in Sf9 insect cells using TK as substrate measured up to 2 to 40 mins by fluorescence assay. More on the design: species or system Homo sapiens.
Data set [13] is filed under the species Homo sapiens. Kind of data set: Inhibition of S6 phosphorylation at T202/204 residues in human H1781 cells after 1 hrs by Western blot analysis. To be noted: dose nM 10-500, time 1.0 hrs. Type of data set: cell-based.
The species named for data set [14] is Homo sapiens. Kind of data set: Inhibition of MAPK phosphorylation at T202/204 residues in human H1781 cells after 1 hrs by Western blot analysis. Type of data set: cell-based. The conditions noted are these: dose nM 10-500, time 1.0 hrs.
The target in data set [15] is Serine/threonine-protein kinase AKT (Homo sapiens) (UniProt P31751+Q9Y243+P31749). As to the kind of experiment: Inhibition of AKT phosphorylation at S473 residues in human H1781 cells after 1 hrs by Western blot analysis. Type of data set: cell-based. The conditions noted are these: dose nM 10-500, time 1.0 hrs.
Sequence of Serine/threonine-protein kinase AKT (Homo sapiens) (P31749 whole entry, looked up): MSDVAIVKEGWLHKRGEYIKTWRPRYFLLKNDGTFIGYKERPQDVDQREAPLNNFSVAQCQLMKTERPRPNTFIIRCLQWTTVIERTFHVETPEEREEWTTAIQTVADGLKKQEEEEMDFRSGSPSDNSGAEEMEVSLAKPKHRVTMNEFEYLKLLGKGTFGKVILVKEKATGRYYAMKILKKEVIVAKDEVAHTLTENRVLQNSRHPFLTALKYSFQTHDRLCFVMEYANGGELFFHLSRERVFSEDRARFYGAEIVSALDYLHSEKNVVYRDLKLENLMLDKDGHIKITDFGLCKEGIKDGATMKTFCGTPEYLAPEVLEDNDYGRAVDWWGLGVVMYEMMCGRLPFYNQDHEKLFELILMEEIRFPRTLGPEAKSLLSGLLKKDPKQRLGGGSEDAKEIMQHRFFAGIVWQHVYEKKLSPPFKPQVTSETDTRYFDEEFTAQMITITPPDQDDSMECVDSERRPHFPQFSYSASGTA
Sequence of Serine/threonine-protein kinase AKT (Homo sapiens) (P31751 whole entry, looked up): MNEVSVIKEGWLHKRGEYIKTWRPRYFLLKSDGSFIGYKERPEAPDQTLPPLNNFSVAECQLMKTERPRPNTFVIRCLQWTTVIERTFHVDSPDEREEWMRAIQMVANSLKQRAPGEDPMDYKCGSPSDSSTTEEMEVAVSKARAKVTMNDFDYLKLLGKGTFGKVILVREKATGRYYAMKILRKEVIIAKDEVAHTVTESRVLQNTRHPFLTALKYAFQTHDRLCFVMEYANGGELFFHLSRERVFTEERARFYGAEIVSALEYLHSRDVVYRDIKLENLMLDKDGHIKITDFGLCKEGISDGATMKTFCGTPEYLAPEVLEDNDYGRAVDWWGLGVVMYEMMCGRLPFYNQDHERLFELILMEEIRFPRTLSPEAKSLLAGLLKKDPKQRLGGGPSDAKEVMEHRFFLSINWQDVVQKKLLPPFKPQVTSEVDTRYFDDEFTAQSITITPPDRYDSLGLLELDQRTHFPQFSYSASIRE
Sequence of Serine/threonine-protein kinase AKT (Homo sapiens) (Q9Y243 whole entry, looked up): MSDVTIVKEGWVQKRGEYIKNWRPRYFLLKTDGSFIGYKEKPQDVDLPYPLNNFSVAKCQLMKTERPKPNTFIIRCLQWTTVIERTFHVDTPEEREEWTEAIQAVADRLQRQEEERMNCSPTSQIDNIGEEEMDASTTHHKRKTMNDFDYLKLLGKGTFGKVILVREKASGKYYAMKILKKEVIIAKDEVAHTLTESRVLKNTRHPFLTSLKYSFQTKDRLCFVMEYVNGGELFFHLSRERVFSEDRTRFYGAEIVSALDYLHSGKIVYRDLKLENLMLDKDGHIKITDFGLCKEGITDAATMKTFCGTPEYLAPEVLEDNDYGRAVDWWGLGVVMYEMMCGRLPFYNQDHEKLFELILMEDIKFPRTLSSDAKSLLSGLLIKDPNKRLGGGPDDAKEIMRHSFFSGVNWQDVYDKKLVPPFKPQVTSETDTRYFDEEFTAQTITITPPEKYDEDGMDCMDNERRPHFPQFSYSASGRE
Data set [16] addresses T1, Receptor tyrosine-protein kinase erbB-2 (Homo sapiens, UniProt P04626). As to the kind of experiment: Inhibition of HER2 in human H1781 cells assessed as reduction in HER2 phosphorylation at Y1248 residues after 1 hrs by Western blot analysis. Type of data set: cell-based. The conditions noted are these: dose nM 10-500, time 1.0 hrs.
Data set [17] has as its target T1, Receptor tyrosine-protein kinase erbB-2. Kind of data set: Inhibition of HER2 in human H1781 cells assessed as reduction in HER2 phosphorylation at Y1221/1222 residues after 1 hrs by Western blot analysis. Type of data set: cell-based. The conditions noted are these: dose nM 10-500, time 1.0 hrs.
Data set [18] is described as follows: Inhibition of HER2-A775_G776insYVMA mutant (unknown origin) expressed in mouse BaF3 cells assessed as reduction in HER2 induced cell viability after 96 hrs by CellTiter-Glo assay. To be noted: BaF3, 96 h. Type of data set: cell-based.
A further data set is described as follows: cells. To be noted: Homo sapiens, NCI-H1781, 96 h. Type of data set: cell-based.
For data set [19], the target named is T1, Receptor tyrosine-protein kinase erbB-2. Kind of data set: Inhibition of C-terminal His6-tagged HER2 (703 to 1029 residues) (unknown origin) expressed in Sf9 insect cells using TK as substrate preincubated for 30 mins followed by substrate addition and measured after 60 mins in presence of XL665-labeled streptavidin by HTRF assay.
Data set [20] is described as follows: Apparent permeability across basolateral side to apical side in human Caco-2 cells at 5 uM after 2 hrs by transwell assay. Type of data set: ADME, cell-based. To be noted: read-out: permeability.
A short description of data set [21]: Intrinsic clearance in mouse liver microsomes at 1 uM measured up to 60 mins by LC-MS analysis. Type of data set: ADME, Microsome. To be noted: read-out: CLH.
Data set [22] is described as follows: Kinetic solubility of compound in HEPES buffer a pH 7.4 at 500 uM after 90 mins. Type of data set: physicochemical. To be noted: read-out: Kinetic_solubility.
In data set [23] the target is T1, Receptor tyrosine-protein kinase erbB-2. Kind of data set: Inhibition of HER2 in human H1781 cells assessed as reduction in HER2 phosphorylation at Y1248 residues at 100 to 500 nM after 1 hrs by Western blot analysis. Type of data set: cell-based. To be noted: dose nM 100-500, time 1.0 hrs.
The target is the same in data set [24]. As to the kind of experiment: Inhibition of HER2 in human H1781 cells assessed as reduction in HER2 phosphorylation at Y1221/1222 residues at 100 to 500 nM after 1 hrs by Western blot analysis. To be noted: dose nM 100-500, time 1.0 hrs. Type of data set: cell-based.
Data set [25] in a line: Intrinsic clearance in human liver microsomes at 1 uM measured up to 50 mins by LC-MS analysis. Type of data set: ADME, Microsome. To be noted: read-out: CLH.

Values after ≈ are worked out from the molar mass of the structure shown. Active and inactive are the calls of the source. The calls are words filed in the database; no cut-off is given here.

Sequence of Epidermal growth factor receptor (Homo sapiens, UniProt P00533, L858R) (P00533 25-1210 L858R limits assumed): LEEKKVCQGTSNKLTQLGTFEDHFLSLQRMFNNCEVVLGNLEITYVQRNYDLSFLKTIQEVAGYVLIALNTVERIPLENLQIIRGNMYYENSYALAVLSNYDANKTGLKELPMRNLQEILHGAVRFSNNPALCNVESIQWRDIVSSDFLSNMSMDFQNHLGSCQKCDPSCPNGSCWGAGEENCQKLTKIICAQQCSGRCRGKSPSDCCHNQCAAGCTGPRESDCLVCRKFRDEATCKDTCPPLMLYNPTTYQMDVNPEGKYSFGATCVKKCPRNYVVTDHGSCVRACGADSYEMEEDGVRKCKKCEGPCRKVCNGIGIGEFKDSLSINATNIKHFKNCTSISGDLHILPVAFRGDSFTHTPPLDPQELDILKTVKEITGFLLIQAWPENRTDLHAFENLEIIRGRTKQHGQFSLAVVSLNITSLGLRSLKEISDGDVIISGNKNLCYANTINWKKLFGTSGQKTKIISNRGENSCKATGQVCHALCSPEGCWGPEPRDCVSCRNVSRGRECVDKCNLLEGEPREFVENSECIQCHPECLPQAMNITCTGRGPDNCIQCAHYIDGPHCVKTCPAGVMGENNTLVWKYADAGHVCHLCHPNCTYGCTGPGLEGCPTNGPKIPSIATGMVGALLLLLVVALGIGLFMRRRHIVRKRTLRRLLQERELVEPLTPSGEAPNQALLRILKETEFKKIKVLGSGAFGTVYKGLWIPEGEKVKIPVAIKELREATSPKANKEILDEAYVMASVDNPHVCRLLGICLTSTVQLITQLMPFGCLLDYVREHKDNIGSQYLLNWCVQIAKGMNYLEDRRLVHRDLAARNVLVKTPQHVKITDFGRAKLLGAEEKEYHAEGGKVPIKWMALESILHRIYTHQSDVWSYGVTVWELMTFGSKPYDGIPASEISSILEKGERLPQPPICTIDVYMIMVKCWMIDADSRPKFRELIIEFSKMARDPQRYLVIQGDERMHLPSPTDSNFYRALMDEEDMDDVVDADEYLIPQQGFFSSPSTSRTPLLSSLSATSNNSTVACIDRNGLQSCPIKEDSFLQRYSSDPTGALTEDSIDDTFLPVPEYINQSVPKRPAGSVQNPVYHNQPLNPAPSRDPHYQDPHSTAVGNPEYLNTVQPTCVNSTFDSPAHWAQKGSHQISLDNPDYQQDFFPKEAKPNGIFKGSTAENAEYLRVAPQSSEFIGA
T1 sequence (P04626 whole entry): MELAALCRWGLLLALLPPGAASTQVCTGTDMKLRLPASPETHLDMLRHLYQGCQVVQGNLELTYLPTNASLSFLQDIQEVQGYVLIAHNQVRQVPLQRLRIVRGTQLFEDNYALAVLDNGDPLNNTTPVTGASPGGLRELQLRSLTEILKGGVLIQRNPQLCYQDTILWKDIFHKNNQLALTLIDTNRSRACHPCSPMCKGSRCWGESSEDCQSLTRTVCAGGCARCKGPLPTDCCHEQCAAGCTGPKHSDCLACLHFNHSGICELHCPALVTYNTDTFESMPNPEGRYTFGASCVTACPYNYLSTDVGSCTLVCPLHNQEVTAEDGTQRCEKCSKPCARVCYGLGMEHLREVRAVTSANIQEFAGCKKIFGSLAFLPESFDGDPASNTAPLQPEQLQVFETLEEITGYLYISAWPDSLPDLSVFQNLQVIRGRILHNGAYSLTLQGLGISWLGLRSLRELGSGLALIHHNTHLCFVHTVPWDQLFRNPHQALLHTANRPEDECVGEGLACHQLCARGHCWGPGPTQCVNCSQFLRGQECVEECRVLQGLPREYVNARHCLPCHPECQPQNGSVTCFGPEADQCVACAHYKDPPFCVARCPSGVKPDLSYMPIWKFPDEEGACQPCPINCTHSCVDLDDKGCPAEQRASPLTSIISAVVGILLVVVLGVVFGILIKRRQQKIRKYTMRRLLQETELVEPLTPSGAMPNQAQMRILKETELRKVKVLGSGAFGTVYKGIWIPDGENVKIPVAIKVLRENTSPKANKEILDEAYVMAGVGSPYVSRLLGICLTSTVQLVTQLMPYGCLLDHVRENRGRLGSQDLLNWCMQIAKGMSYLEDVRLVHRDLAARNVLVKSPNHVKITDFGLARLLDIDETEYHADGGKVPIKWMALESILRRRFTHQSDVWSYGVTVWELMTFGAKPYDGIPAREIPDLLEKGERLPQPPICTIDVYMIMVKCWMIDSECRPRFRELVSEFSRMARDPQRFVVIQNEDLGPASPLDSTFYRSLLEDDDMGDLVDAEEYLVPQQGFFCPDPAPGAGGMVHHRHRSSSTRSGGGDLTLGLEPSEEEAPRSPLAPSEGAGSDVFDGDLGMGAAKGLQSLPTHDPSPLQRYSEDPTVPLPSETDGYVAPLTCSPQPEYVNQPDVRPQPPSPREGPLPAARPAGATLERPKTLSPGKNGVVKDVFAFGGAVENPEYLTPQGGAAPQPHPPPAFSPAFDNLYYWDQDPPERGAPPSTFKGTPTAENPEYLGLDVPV
Description for cells: Inhibition of HER2-G776delinsVC mutant (unknown origin) expressed in human H1781 cells assessed as reduction in HER2 induced cell viability after 96 hrs by CellTiter-Glo assay

On to `C=CC(=O)Nc1cccc(-c2c[nH]c3ncnc(Nc4ccc(OCc5ccccn5)c(Cl)c4)c23)c1`, for which the efflux ratio at 2 h, 5 µM in data set [1] stood at 0.3. The Papp A→B at 2 h, 5 µM in data set [2] was 19 nm/s. For the same compound, the figures for the microsomal CLint at 3 µM in [3] and in [4] were 125 µL/min/mg and 27.7 µL/min/mg, respectively. The remaining at 1 h, 5 µM was found to be 49% in data set [5] and 79.8% in data set [6]. In addition, the solubility kinetic at 2 h in data set [7] amounted to 30 µM (≈ 14.9 µg/mL). Further, the IC50 in data set [8] turned out to be 3.9 nM; in data set [9], 0.1 nM; in data set [10] it was 0.08 nM; in [18] it was 83 nM; in “cells”, 161 nM; in data set [19], 11 nM. In addition, the Kinact in [11] came out at 0.136 min⁻¹. The inhibitory constant (Ki) in [12] came out at 54 nM. Further, the inhibition result (in the data set filed under Homo sapiens [13]; in the data set filed under Homo sapiens [14]; in data set [15]; in data set [16]; in data set [17]) was “Dose-dependent effect” in each case. For the same compound, the Papp B→A at 2 h, 5 µM in data set [20] stood at 6 nm/s.

As to `C=CC(=O)Nc1cc(-c2c[nH]c3ncnc(Nc4ccc(OCc5ccccn5)c(Cl)c4)c23)ccc1OCCN(C)C`, the microsomal CLint at 1 µM in data set [21] worked out at 866 µL/min/mg; in data set [25], 64.2 µL/min/mg. Also, the efflux ratio at 2 h, 5 µM in data set [1] came out at 11.4. Further, the Papp A→B at 2 h, 5 µM in data set [2] was determined as 21 nm/s. Also, the remaining at 1 h, 5 µM in data set [5] is 0.8%; in data set [6] it was 74.4%. The solubility kinetic at 1.5 h, 500 µM in data set [22] stood at 60.6 µM (≈ 35.4 µg/mL). Also, in data set [7], the solubility kinetic at 2 h was 100 µM (≈ 58.4 µg/mL). Besides, the half-maximal inhibitory concentration (IC50) in data set [8] came out at 2 nM; in data set [9], 0.1 nM; in data set [10], 0.09 nM; in [18], 120 nM; in the data set “cells”, 164 nM; in data set [19] it was 15 nM. The Kinact in data set [11] was 0.212 min⁻¹. This compound also came in with a Ki in [12] of 49 nM. For the same compound, the inhibition result in data set [23] and in data set [24] was “Active” throughout. Besides, in data set [20], the Papp B→A at 2 h, 5 µM stood at 239 nm/s.

As to `C=CC(=O)Nc1cc(-c2c[nH]c3ncnc(Nc4ccc5c(cnn5Cc5ccccc5)c4)c23)ccc1OCCO`, the microsomal CLint at 1 µM in data set [21] came to 603 µL/min/mg; in data set [25], 66 µL/min/mg. Besides, the efflux ratio at 2 h, 5 µM in data set [1] worked out at 4.5. Also, the Papp A→B at 2 h, 5 µM in [2] was 12 nm/s. The remaining at 1 h, 5 µM in data set [5] turned out to be 88.4%; in data set [6], 90.9%. Moreover, the solubility kinetic at 1.5 h, 500 µM in [22] came out at 16.8 µM (≈ 9.17 µg/mL). Moreover, the solubility kinetic at 2 h in data set [7] was 30 µM (≈ 16.4 µg/mL). The IC50 in data set [8] was 6 nM; in [9], 0.1 nM; in data set [10] it was 0.07 nM; in data set [18], 159 nM; in the data set “cells” it was 508 nM; in [19], 14 nM. Further, in [11], the Kinact worked out at 0.138 min⁻¹. In data set [12], this compound gave an inhibition constant (Ki) of 67 nM. Also, the inhibition result in data set [23] and in data set [24] was “Active” each time. Besides, the Papp B→A at 2 h, 5 µM in [20] stood at 52 nm/s.

In the case of `C=CC(=O)Nc1cccc(-c2c[nH]c3ncnc(Nc4ccc(CN5C(=O)c6ccccc6C5=O)cc4)c23)c1`, the microsomal CLint at 1 µM in [21] was 770 µL/min/mg; in data set [25] it was 96.3 µL/min/mg. In addition, the efflux ratio at 2 h, 5 µM in data set [1] worked out at 0.2. Also, in [2], the Papp A→B at 2 h, 5 µM worked out at 5 nm/s. Besides, the remaining at 1 h, 5 µM in [5] was 81.3%; in data set [6] it was 78.1%. Besides, the solubility kinetic at 1.5 h, 500 µM in data set [22] turned out to be 8.3 µM (≈ 4.27 µg/mL). The compound further showed a solubility kinetic at 2 h in data set [7] of 30 µM (≈ 15.4 µg/mL). The half-maximal inhibitory concentration (IC50) was 33 nM in data set [8]; 0.2 nM in data set [9]; 0.4 nM in data set [10]; 381 nM in data set [18]; 419 nM in “cells”; 11 nM in data set [19]. The Kinact in data set [11] is 0.132 min⁻¹. The compound further gave an inhibition constant Ki in [12] of 143 nM. The inhibition result (in the data set listed under Homo sapiens [13]; in the data set listed under Homo sapiens [14]; in data set [15]; in data set [16]; in data set [17]) was “Dose-dependent effect” throughout. Besides, the Papp B→A at 2 h, 5 µM in [20] stood at 1 nm/s.

In the case of `CCOc1cc2ncc(C#N)c(Nc3ccc(OCc4ccccn4)c(Cl)c3)c2cc1NC(=O)/C=C/CN(C)C` [NERATINIB], the Papp A→B at 2 h, 5 µM in data set [2] came out at 0.9 nm/s. Besides, the microsomal CLint at 3 µM in [3] stood at 126 µL/min/mg; in data set [4], 42 µL/min/mg. In addition, the remaining at 1 h, 5 µM came to 97.4% in data set [5] and 80.7% in data set [6]. Besides, the solubility kinetic at 1.5 h, 500 µM in data set [22] came out at 1.2 µM (≈ 0.668 µg/mL). This compound showed a solubility kinetic at 2 h in data set [7] greater than 10 µM. The compound also returned an inhibitory constant (Ki) in [12] of 6.3 nM. For the same compound, the IC50 in data set [18] is less than 14 nM; in “cells”, 148 nM. The Papp B→A at 2 h, 5 µM in data set [20] was determined as 4 nm/s.
